Test results taken from publication PMC9221371, “Flavonoid Derivatives as Potential Cholinesterase Inhibitors in Scopolamine-Induced Amnesic Mice: An In Vitro, In Vivo and Integrated Computational Approach” (Brain Sciences, 2022).
Like-named read-outs stand apart in the source and are kept apart here.

Tests used:
[1] = tested on: scopolamine-induced amnesic mice; experiment: Novel object discrimination (NOD) task in scopolamine-induced amnesic model; assay type: in vivo, Balb/C mice; conditions: scopolamine 1 mg/kg i.p., n = 8
Description: (§1) The animals in the control (normal) and scopolamine amnesic groups were administered vehicle (Tween-80, 2%) only. Treated animals received F1–F5 suspended in Tween-80 (2%) p.o. at their respective doses for a period of 4 weeks. […] For assessing behavioral effects using the Y-Maze Paradigm and novel object discrimination (NOD) task, scopolamine (1 mg/kg, i.p.) was given to the different groups, 30 min after the respective treatments, to induce memory impairment (amnesia) in mice. All of the tests were performed between 8:00 a.m. and 6:00 p.m. to avoid sham results in the performance of the animals.
(§2) Behavioral tasks on the Y-Maze Paradigm and “NOD” tasks were conducted in the 5th week of study to determine learning and memory functions. The apparatus arena was cleaned with 70% ethanol during the inter-trial interval to prevent a confounding error due to the influence of odor [20, 21].
Animals were challenged for the novel object discrimination task for F1–F5 as per previously reported protocols. After habituation and acclimatization, animals in each group had two consecutive object exploration trials (5 min each) for this test, with a break of 4 h in between two trials. In the familiarization phase (sample), the animals were challenged to explore two objects similar to each other. In the second phase (test), any of the two objects was changed by a new object. Exploration time in sec for the objects, including chewing, licking, sniffing or pointing the vibrissae of nose towards the object, was recorded. The discrimination ratio (%DI) was then determined using:(T novel object − T familiar object)/(T novel object + T familiar object) × 100(1)

[2] = tested on: brains of scopolamine-induced amnesic mice; experiment: Antioxidant enzyme activities and oxidative stress markers in brain homogenate; assay type: in vivo, Balb/C mice; conditions: for GSH / MDA: n = 8
Description: as §1
(§3) The brain was extracted, and a homogenate (10% w/v) in 0.1 M of phosphate buffer (pH 7.4) was prepared by centrifugation for the assessment of brain oxidative status and estimating brain acetylcholinesterase activity. Catalase (CAT), superoxide dismutase (SOD), glutathione (GSH) and level of lipid peroxidation (malondialdehyde, MDA) were quantified as oxidative stress markers.

[3] = tested on: scopolamine-induced amnesic mice; experiment: Y-Maze Paradigm, spontaneous alternation in scopolamine-induced amnesic model; assay type: in vivo, Balb/C mice; conditions: for Spontaneous Alternation Performance: scopolamine 1 mg/kg i.p., n = 8
Excerpt: (§4) For assessment of acute toxicity of the flavones (F1–F5), animals (21 in number) were divided into groups of 3 animals each. The reported protocols by Lorke were followed with slight modification to perform tests in two phases. In the first phase, one (control) group of animals were given Tween-80 (2%), and oral doses of F1–F5 were given to the remaining groups, respectively, at various doses (mg/kg body weight). […] The animals were housed in plastic cages. After two weeks, the animals were sacrificed by euthanasia with isoflurane in a humane manner for assessment of the effects on total weight and weight of the vital organs. The biochemical parameters of blood and histological studies of vital organs (kidney and liver tissue) were also assessed. […] The preliminary pharmacological activity was assessed at various dose concentrations of F1–F5 (2.5–20 mg/kg b.w.) to determine the effective dose for assessment of cognitive function using animal models.
as §1, §2
The Y-Maze task is a non-invasive and reliable behavioral test that was used for memory assessment of spontaneous alternation for F1–F5 based on previously reported protocols. A single session of Y-Maze was used to record the spontaneous alternation behavior of the animals to determine exploratory behavior and instant memory functioning. The apparatus was made of three arms in a “Y” shape (35 cm × 8 cm × 15 cm) with an equilateral triangular central area. In brief, each of the mice, previously naive to the maze, was placed at the terminal end of one arm. The animals were allowed to move and explore freely for 8 min through the maze. The number of arm entries was noted. One arm entry was considered when the hind paws of the animal were completely placed inside the arm, and the series of arm entries were documented. The spontaneous alternation in percent was calculated.

[4] = target: T1, AChE (electric eel type-VI-S) (Electrophorus electricus, UniProt O42275); experiment: biochemical; conditions: 25 °C, triplicate
T1 construct: purchased Sigma-Aldrich (Taufkirchen, Germany)
T1 sequence (O42275 24-633): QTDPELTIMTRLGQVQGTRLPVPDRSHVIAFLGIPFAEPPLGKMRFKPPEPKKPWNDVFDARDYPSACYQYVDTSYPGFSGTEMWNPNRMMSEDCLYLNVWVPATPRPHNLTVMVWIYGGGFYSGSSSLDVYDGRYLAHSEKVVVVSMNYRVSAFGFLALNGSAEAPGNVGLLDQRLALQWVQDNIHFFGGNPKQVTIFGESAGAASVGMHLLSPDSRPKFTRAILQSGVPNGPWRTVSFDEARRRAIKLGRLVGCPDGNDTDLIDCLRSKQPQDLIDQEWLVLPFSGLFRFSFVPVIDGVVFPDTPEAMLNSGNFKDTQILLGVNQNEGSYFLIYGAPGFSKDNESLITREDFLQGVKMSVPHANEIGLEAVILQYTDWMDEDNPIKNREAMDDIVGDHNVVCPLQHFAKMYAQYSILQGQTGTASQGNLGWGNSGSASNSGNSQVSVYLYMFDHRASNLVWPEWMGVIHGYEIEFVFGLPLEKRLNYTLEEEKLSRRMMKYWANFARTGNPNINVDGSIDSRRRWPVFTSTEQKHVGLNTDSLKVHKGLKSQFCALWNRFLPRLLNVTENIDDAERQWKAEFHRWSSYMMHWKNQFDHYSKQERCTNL
Description: (§5) Synthetic flavonoids F1–F5 previously synthesized by our group were used in the study.
(§6) For the determination of acetylcholinesterase inhibitory potentials, AChE and BuChE were used. […] To the tube were added DTNB (100 µL) and buffer (2.4 mL). The tube was incubated at 25 °C for 5 min as pre-incubation. The reaction was started by adding ATChI (40 µL), and the mixture was incubated at 25 °C for 20 min. The absorbance at 412 nm was measured spectrophotometrically in triplicate. […] The data were recorded in triplicate, and IC50 was calculated.

[5] = target: T2, BuChE (equine serum lyophilized) (Equus caballus, UniProt P81908); experiment: biochemical; conditions: triplicate; read-out: BChE IC50 (converted)
T2 construct: purchased Sigma-Aldrich (Taufkirchen, Germany); host or cells: equine serum
T2 sequence (P81908 whole entry): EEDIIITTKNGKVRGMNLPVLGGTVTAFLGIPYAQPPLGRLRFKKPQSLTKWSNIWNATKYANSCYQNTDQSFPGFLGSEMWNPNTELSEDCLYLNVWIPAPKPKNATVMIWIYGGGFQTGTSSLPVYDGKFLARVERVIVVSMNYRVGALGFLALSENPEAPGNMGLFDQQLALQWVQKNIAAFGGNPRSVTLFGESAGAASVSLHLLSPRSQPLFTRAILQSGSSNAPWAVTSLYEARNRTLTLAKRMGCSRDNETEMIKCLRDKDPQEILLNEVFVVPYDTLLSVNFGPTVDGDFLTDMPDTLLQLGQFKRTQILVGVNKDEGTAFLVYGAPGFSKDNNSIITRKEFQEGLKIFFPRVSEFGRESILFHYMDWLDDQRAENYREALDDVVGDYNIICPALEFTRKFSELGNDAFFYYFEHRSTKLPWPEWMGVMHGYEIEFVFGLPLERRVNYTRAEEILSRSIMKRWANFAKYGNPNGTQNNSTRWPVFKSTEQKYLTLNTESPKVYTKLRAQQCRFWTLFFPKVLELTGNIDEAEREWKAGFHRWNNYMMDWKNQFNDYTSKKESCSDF
Description: as §5, §6

Balb/C mice = experiment: Acute toxicity study; assay type: in vivo; conditions: n = 3; for ALP / AST / Creatinine / Glucose / Total Cholesterol / Triglyceride: blood; for Kidney Weight / Liver Weight / Total Weight: mice
Excerpt: Two weeks before the experiment, the animals were acclimatized to laboratory conditions.
as §4

[6] = target: T3, brain acetylcholinesterase (Mus musculus, UniProt P21836); assay type: in vivo; parameters: unit not given here; conditions: brain homogenate, n = 8
T3 construct: The brain was extracted, and a homogenate (10% w/v) in 0.1 M of phosphate buffer (pH 7.4) was prepared; from tissue; host or cells: mouse brain homogenate
T3 sequence (P21836 32-614): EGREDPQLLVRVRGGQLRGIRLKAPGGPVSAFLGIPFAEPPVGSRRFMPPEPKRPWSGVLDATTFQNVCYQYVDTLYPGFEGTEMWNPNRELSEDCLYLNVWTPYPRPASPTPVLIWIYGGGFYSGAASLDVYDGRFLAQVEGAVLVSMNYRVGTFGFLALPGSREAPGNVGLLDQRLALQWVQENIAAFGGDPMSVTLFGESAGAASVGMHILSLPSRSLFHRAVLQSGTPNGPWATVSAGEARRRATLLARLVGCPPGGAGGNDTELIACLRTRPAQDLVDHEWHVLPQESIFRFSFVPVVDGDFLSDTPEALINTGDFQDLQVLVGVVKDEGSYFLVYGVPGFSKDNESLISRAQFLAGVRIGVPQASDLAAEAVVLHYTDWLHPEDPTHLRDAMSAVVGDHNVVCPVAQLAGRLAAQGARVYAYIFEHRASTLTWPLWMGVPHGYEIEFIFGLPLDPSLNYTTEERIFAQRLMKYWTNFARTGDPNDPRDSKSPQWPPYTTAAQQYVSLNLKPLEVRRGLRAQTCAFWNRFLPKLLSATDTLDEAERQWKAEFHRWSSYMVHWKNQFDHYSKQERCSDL
Description: as §1, §3

[7] = 7.5 mg/kg b.w., n = 8, 7.5 mg/kg

SMILES: O=c1cc(-c2ccc(Cl)cc2)oc2ccccc12 [Compound F1]
- discrimination index (%DI) ([1]; 7.5 mg/kg b.w. p.o. 4 weeks): 48.67 ± 1.57%
- discrimination index (%DI) ([1]; 15 mg/kg b.w. p.o. 4 weeks): 51.11 ± 1.48%
- GSH ([2]; 7.5 mg/kg b.w.): 34.62 ± 1.50 μg/mg of Protein
- MDA ([2]; 7.5 mg/kg b.w.): 16.39 ± 1.28 nmol/mg Protein
- CAT [2, 7]: 21.93 ± 1.37 U/mg of Protein
- SOD [2, 7]: 8.97 ± 1.12 U/mg of Protein
- GSH ([2]; 15 mg/kg b.w.): 35.70 ± 1.47 μg/mg of Protein
- MDA ([2]; 15 mg/kg b.w.): 16.12 ± 1.47 nmol/mg Protein
- CAT ([2]; 15 mg/kg b.w., n = 8, 15 mg/kg): 22.31 ± 1.22 U/mg of Protein
- SOD ([2]; 15 mg/kg b.w., n = 8, 15 mg/kg): 9.12 ± 1.28 U/mg of Protein
- Spontaneous Alternation Performance ([3]; 7.5 mg/kg b.w. p.o. 4 weeks): 49.90 ± 1.33%
- Spontaneous Alternation Performance ([3]; 15 mg/kg b.w. p.o. 4 weeks): 51.78 ± 1.45%
- Spontaneous alternation performance (preliminary, selection of doses) ([3]; Table S1, dose 2.5 mg/kg b.w.): 37.02±2.11
- Spontaneous alternation performance (preliminary, selection of doses) ([3]; Table S1, dose 5 mg/kg b.w.): 38.91±1.67
- Spontaneous alternation performance (preliminary, selection of doses) ([3]; Table S1, dose 7.5 mg/kg b.w.): 49.12±1.45
- Spontaneous alternation performance (preliminary, selection of doses) ([3]; Table S1, dose 10 mg/kg b.w.): 48.66±1.98
- Spontaneous alternation performance (preliminary, selection of doses) ([3]; Table S1, dose 12.5 mg/kg b.w.): 48.98±2.01
- Spontaneous alternation performance (preliminary, selection of doses) ([3]; Table S1, dose 15 mg/kg b.w.): 51.72±1.88
- Spontaneous alternation performance (preliminary, selection of doses) ([3]; Table S1, dose 20 mg/kg b.w.): 52.03±2.03
- IC50 [4]: 644 µM
- IC50 [5]: 603 µM
- ALP (Balb/C mice; 600 mg/kg b.w. oral): 132.54 ± 2.78 U/L
- AST (Balb/C mice; 600 mg/kg b.w. oral): 107.89 ± 2.01 U/L
- Creatinine (Balb/C mice; 600 mg/kg b.w. oral): 0.36 ± 0.05 mg/dL
- Glucose (Balb/C mice; 600 mg/kg b.w. oral): 85.51 ± 2.33 mg/dL
- Total Cholesterol (Balb/C mice; 600 mg/kg b.w. oral): 103.19 ± 2.06 mg/dL
- Triglyceride (Balb/C mice; 600 mg/kg b.w. oral): 95.20 ± 2.76 mg/dL
- Kidney Weight (Balb/C mice; 600 mg/kg b.w. oral): 0.29 ± 0.19 g
- Liver Weight (Balb/C mice; 600 mg/kg b.w. oral): 1.24 ± 0.21 g
- Total Weight (Balb/C mice; 600 mg/kg b.w. oral): 21.82 ± 1.39 g
- ALP (Balb/C mice; 1000 mg/kg b.w. oral): 136.33 ± 2.39 U/L
- AST (Balb/C mice; 1000 mg/kg b.w. oral): 108.34 ± 2.66 U/L
- Creatinine (Balb/C mice; 1000 mg/kg b.w. oral): 0.38 ± 0.06 mg/dL
- Glucose (Balb/C mice; 1000 mg/kg b.w. oral): 86.98 ± 2.09 mg/dL
- Total Cholesterol (Balb/C mice; 1000 mg/kg b.w. oral): 102.76 ± 1.87 mg/dL
- Triglyceride (Balb/C mice; 1000 mg/kg b.w. oral): 94.78 ± 1.98 mg/dL
- Kidney Weight (Balb/C mice; 1000 mg/kg b.w. oral): 0.29 ± 0.18 g
- Liver Weight (Balb/C mice; 1000 mg/kg b.w. oral): 1.23 ± 0.26 g
- Total Weight (Balb/C mice; 1000 mg/kg b.w. oral): 22.93 ± 1.91 g
- ALP (Balb/C mice; 2000 mg/kg b.w. oral): 135.29 ± 4.17 U/L
- AST (Balb/C mice; 2000 mg/kg b.w. oral): 109.73 ± 1.98 U/L
- Creatinine (Balb/C mice; 2000 mg/kg b.w. oral): 0.34 ± 0.04 mg/dL
- Glucose (Balb/C mice; 2000 mg/kg b.w. oral): 86.45 ± 2.27 mg/dL
- Total Cholesterol (Balb/C mice; 2000 mg/kg b.w. oral): 102.05 ± 2.01 mg/dL
- Triglyceride (Balb/C mice; 2000 mg/kg b.w. oral): 96.22 ± 1.70 mg/dL
- Kidney Weight (Balb/C mice; 2000 mg/kg b.w. oral): 0.30 ± 0.20 g
- Liver Weight (Balb/C mice; 2000 mg/kg b.w. oral): 1.23 ± 0.24 g
- Total Weight (Balb/C mice; 2000 mg/kg b.w. oral): 21.79 ± 1.72 g
- ALP (Balb/C mice; 3000 mg/kg b.w. oral): 136.09 ± 3.12 U/L
- AST (Balb/C mice; 3000 mg/kg b.w. oral): 109.90 ± 2.09 U/L
- Creatinine (Balb/C mice; 3000 mg/kg b.w. oral): 0.29 ± 0.03 mg/dL
- Glucose (Balb/C mice; 3000 mg/kg b.w. oral): 85.72 ± 1.97 mg/dL
- Total Cholesterol (Balb/C mice; 3000 mg/kg b.w. oral): 101.28 ± 1.98 mg/dL
- Triglyceride (Balb/C mice; 3000 mg/kg b.w. oral): 97.41 ± 1.83 mg/dL
- Kidney Weight (Balb/C mice; 3000 mg/kg b.w. oral): 0.31 ± 0.27 g
- Liver Weight (Balb/C mice; 3000 mg/kg b.w. oral): 1.25 ± 0.29 g
- Total Weight (Balb/C mice; 3000 mg/kg b.w. oral): 22.71 ± 1.79 g
- level of AChE ([6]; 7.5 mg/kg b.w.): 21.31 ± 0.53
- level of AChE ([6]; 15 mg/kg b.w.): 21.01 ± 0.61
